Data reported in patent US11337426B2, “Biological control agents against fire blight” (priority 2018, dated 2022).

Experiments:
[1] = test system: Erwinia amylovora strain S01; assay: Field trial to control fire blight on Rome apple trees, Geneva NY; format: in vivo
Method: A field trial was conducted to determine the performance of the formulated product based on the vegetative cells of Pseudomonas poae FL10F and its extracellular metabolites produced in the supernatants and was compared to antibiotic (FireWall 17 WP Streptomycin), copper fungicide (Cueva, Certis, USA) and the biological product Blossom Protect based on two strains of Aureobasidium pullulans. […] Both antibiotic and copper that were used in this trial were EPA registered products. Pseudomonas poae FL10F was cultivated for 2 days at 30° C. and 200 rpm and reached an OD600 nm=2.50, which was empirically determined to represent 2.50×10^9 CFU/mL by plating serial dilutions of the suspension and counting colonies. A 4L of product based on Pseudomonas poae FL10F and its metabolites was produced as described above and was sprayed more than 2 months later on apple Rome trees. Three samples of this formulated product were retained in sterile 50 mL polypropylene centrifuge tubes at room temperature for long-term activity and bacterial count studies.
The 4L product was used during in a field trial conducted in Phelps, (Geneva) NY to evaluate the product against fire blight. Apple Rome were used for this study that had 5 to 12 blossom clusters per tree. These were 1-year-old trees from Waffler Nursery, Wolcott, N.Y.
The experimental treatments were applied using a CO2 Backpack sprayer that was calibrated to deliver 100 gallons per acre (Trees were sprayed to first drip with a “dilute” solution of products.) The sprayer was calibrated at 42 PSI and used 2 Hollow Cone (TXVK18) Nozzles.
An evaluation of treatments was conducted using the method where scissors were dipped into a solution of a streptomycin sensitive Erwinia amylovora strain S01, and the two smallest leaves on each terminal or shoot were cut in half. This severe test is used to simulate infection that can occur following hailstorms. The scissors were dipped into the Erwinia amylovora S01 solution prior to each cut. The apical terminal shoot and the terminal leaves on any side shoots were cut. For the size of these trees, the number of terminals that were cut varied from 9 to 18. To evaluate the treatments for this method, each treatment was applied as before to all leaves and shoots of seven individual trees. The inoculations occurred near dusk, and 1.15 inches of rain occurred during the overnight period. All treatments were applied 30 minutes before the infection and then re-applied 24 hours after the initial inoculation. The second application of treatments was applied to the same trees. The product based on Fluorescent Pseudomonas poae FL10F and its metabolites was first diluted at a concentration of 20% (w/w) with water then it was mixed properly and sprayed.
At 3 weeks following the scissor inoculation, each terminal shoot was rated for the length in inches with typical symptoms of fire blight (rated as SEVERITY). Then the percentage of all shoots that had any symptoms of fire blight was calculated as INCIDENCE).
The objective of this trial was to compare the activity of P. poae FL with antibiotic (Streptomycin), copper fungicide (Cueva, Certis, USA) and the biological product Blossom Protect based on two strains of Aureobasidium pullulans (Porter et al., 1960). Apple trees were infected with […] CFU/mL solution of Erwinia amylovora. The concentration of various treatments applied are represented in Table 13. The medium used in Treatment 7 is the same one used to cultivate the P. poae FL composed of Nutrient Broth NB (Difco) supplemented with 0.5% (w/w) glycerol and a concentration of 4% NaCl (w/w). Neither the medium nor the treatments used were phytotoxic to apple leaves and no phytotoxicity was noted on the apple trees in this study.

E. amylovora S435 [2] = assay: Management of fire blight on shoots of potted McIntosh apple trees; format: in vivo, Erwinia amylovora; conditions: treated 2 h after inoculation, formulations diluted to 20%, streptomycin 100 ppm, 10 d
Method: A trial was conducted at the IRDA research station in Saint-Bruno-de-Montarville, Québec to evaluate the efficacies of the best isolates previously screened. To simulate fire blight, Malus x domestica ‘McIntosh’ cultivar trees were inoculated then treated 2 h later with 20% (w/w) isolate dilutions. Inoculum was obtained by suspending a 5-d culture of the virulent strain E. amylovora […] in potassium phosphate buffer (pH=6.5) in King B agar which favors the growth of this phytopathogen. The bacterial density was adjusted to ˜1×10^9 CFU/mL. Actively growing potted trees (cv. McIntosh grafted onto M26) were inoculated by transversely bisecting the two youngest leaves with scissors dipped in the inoculum. One or two shoots were inoculated per tree. Two hours after inoculation, candidate biological control agent suspensions were sprayed to runoff onto five trees per treatment using a low-pressure sprayer. The experimental design was completely randomized.
Inoculated controls were sprayed either with water or with the medium used to formulate the candidate biocontrol products. Uninoculated controls were sprayed only with water. […] Severity scores were analyzed with a cumulative link mixed model (clmm) in the “ordinal” package of R. Treatment and observation date were used as fixed effects. […]

E. amylovora S435 [3] = assay: Agar disc diffusion assay of cell-free supernatants and fractions; format: cell-based, Erwinia amylovora; conditions: active fraction from bioassay-guided fractionation
Method: To obtain cell-free supernatants, cultures of both strains were centrifuged at 25 000 rpm for 1 hour. The pellets were discarded and the supernatants were filtered using Stericup™ vacuum filtration system (0.2 μm). Fresh cell-free supernatants were used for the present research, but they could also be stored at +4° C. for one week, or at −20° C. for 6 months, while keeping their activity.
1 L of each bacterial culture was combined, and biomass was removed by centrifugation at 17 700×g for 20 min. The cell-free medium supernatant was applied to 40 g of pre-equilibrated Amberlite™ XAD-16 resin packed in a column. The XAD-16 column was subsequently washed with 1 L of H2O, and then eluted with 1 L of 100% methanol. The methanolic elution was evaporated to dryness by rotary evaporation, and the brown residue was redissolved in 5 ml of purified water (Milli-Q system; Millipore, Bedford, Mass.). The concentrated solution was then applied onto a 12 gram Biotage® SNAP Ultra C18 column to be fractionate using reverse-phase flash chromatography on a Biotage (Stockholm, Sweden) Isorela One instrument. This chromatography was performed using a linear gradient acetonitrile from 5% to 100% over 50 min at 15 ml min^−1. […] The bioactivity of these fractions was further determined by performing agar disc diffusion assay. […]

[4] = 3 weeks, Strepmycin 2.4 oz wt/a

Molecule	Fire blight Severity: Average length of shoot with symptoms of Fire blight ([1]; 3 weeks after scissor inoculation, Strepmycin 8 oz wt/a, Cueva 64 fl oz/a, P. poae FL10F 20 % v/v, Blossom Protect 20 oz wt/a)	Fire blight Incidence: Average percentage of shoots with symptons of Fire blight following inoculation [1, 4]	Fire blight Severity: Average length of shoot with symptoms of Fire blight [1, 4]	Fire blight Incidence: Average percentage of shoots with symptons of Fire blight following inoculation ([1]; 3 weeks, Strepmycin 8 oz wt/a, Cueva 64 fl oz/a, P. poae FL10F 20 % v/v, Blossom Protect 20 oz wt/a)	Phytotoxicity: Percentage of leaves with atypical symptoms ([1]; Strepmycin 2.4 oz wt/a)	Phytotoxicity: Percentage of leaves with atypical symptoms ([1]; Strepmycin 8 oz wt/a, Cueva 64 fl oz/a, P. poae FL10F 20 % v/v, Blossom Protect 20 oz wt/a)	Median score (disease severity 0-4) (E. amylovora S435 [2])	inhibition halos of the extracellular metabolite fraction on a lawn of E. amylovora S435 (E. amylovora S435 [3])
[H]/N=C(/N)N[C@H]1[C@H](O)[C@@H](O)[C@H](O[C@@H]2O[C@@H](C)[C@](O)(C=O)[C@H]2O[C@@H]2O[C@@H](CO)[C@H](O)[C@@H](O)[C@@H]2NC)[C@@H](N/C(N)=N\[H])[C@@H]1O [Streptomycin]	3.89 INCHES	81.73%	5.53 INCHES	52.39%	0.00%	0.00%	0	–
oxydifficidin	–	–	–	–	–	–	–	comparable in diameter to that of the live strain itself or crude extracellular metabolites therefrom
white line-inducing principle [WLIP]	–	–	–	–	–	–	–	comparable in diameter to that of the live strain itself or crude extracellular metabolites therefrom
